Measured values published in patent US20180371272A1, “AQUEOUS INK, INK CARTRIDGE AND IMAGE RECORDING METHOD” (CANON KABUSHIKI KAISHA, priority 2017, published 2018).
Like-named read-outs stand apart in the source and are kept apart here.

What was measured:
Format in all cases: physicochemical
[1] = Vapor pressure of solvent A at 20° C.
Experimental: (§1) The present invention will be described in detail hereinafter by mentioning preferable embodiments. When a compound is a salt in the present invention, the salt exists while dissociating into ions in an ink, but this is expressed as “containing a salt” for convenience. An aqueous inkjet ink may be described as just an “ink.” The physical property values are values at 20° C. unless otherwise specified.
(§2) The vapor pressure of the solvent A at 20° C. is 0.5 mmHg or less, and the surface tension at 20° C. is 30 mN/m or more. When the vapor pressure is more than 0.5 mmHg, oil films formed on ejection ports evaporate, and the effect of suppressing water evaporation becomes weak. When the surface tension is less than 30 mN/m, the intermolecular force is weak. Therefore, oil films cannot be formed. The vapor pressure of the solvent A at 20° C. can be 0.2 mmHg or less. The surface tension of the solvent A at 20° C. can be 36 mN/m or more. Specific examples of the solvent A are illustrated in Table 1.

[2] = Log partition coefficient of solvent A
[3] = Water solubility of solvent A at 20° C.; settings: for Water solubility (% by mass): 20° C.
Experimental: When a compound is a salt in the present invention, the salt exists while dissociating into ions in an ink, but this is expressed as “containing a salt” for convenience. An aqueous inkjet ink may be described as just an “ink.” The physical property values are values at 20° C. unless otherwise specified.
This solvent A is a so-called poorly water-soluble compound (poorly water-soluble solvent), which is poorly dissolved in water. […] When water in the ink evaporates and the concentration increases, the solvent A cannot be completely dissolved in the ink to separate from the ink. Because the tips of non-printing nozzles are exposed to the atmosphere, water in the ink volatilizes particularly easily.

[4] = Surface tension of solvent A at 20° C.
Experimental: as §1, §2

Row | Vapor pressure (mmHg) [1] [mmHg] | Log partition coefficient [2] | Water solubility (% by mass) [3] [% by mass] | Surface tension (mN/m) [4] [mN/m] | SMILES | Vapor pressure (mmHg) ([1]; 20° C.) | water solubility of the solvent A in the prepared ink ([3]; solvent A of ink 1) [%]
1 | 0 | 1.88 | 0.568 | 38.9 | OCCCc1ccccc1 [3-Phenyl-1-propanol] | – | –
2 | 0 | 2.4 | 0.1 | 38.3 | OCCCCc1ccccc1 [4-Phenyl-1-butanol] | – | –
3 | 0.1 | – | 2.2 | 39.7 | OCCc1ccccc1 [Phenethyl alcohol] | – | –

Second part, the compound before the results:

Row | SMILES | Vapor pressure (mmHg) [1] [mmHg] | Log partition coefficient [2] | Water solubility (% by mass) [3] [% by mass] | Surface tension (mN/m) [4] [mN/m] | Vapor pressure (mmHg) ([1]; 20° C.) | water solubility of the solvent A in the prepared ink ([3]; solvent A of ink 1) [%]
4 | CC(O)COc1ccccc1 (stereo not shown) [1-Phenoxy-2-propanol] | 0 | 1.51 | 1.1 | 37.7 | – | –
5 | CC(O)Cc1ccccc1 (stereo not shown) [1-Phenyl-2-propanol] | – | 1.71 | 0.58 | 37.3 | 0.1 | –
6 | OCCOc1ccccc1 [2-Phenoxyethanol] | 0 | 1.16 | 2.67 | 40 | – | 2.7
7 | OCc1ccccc1 [Benzyl alcohol] | 0.1 | 1.03 | 4.29 | 39 | – | –
